In US20200281202A1 (priority 2017, published 2020):

Assays:
[1] = tested on: Phytophthora infestans; test: microbe, parasite or virus in culture; type: cell-based; conditions: Phytophthora infestans, 168 h, read-out: control (radial growth) compared to the untreated check
[2] = tested on: Phytophthora infestans; test: whole plant or invertebrate; type: in vivo; conditions: Phytophthora infestans, in Solanum lycopersicum, read-out: control (disease severity) compared to the untreated check
[3] = tested on: Plasmopara viticola; test: Plasmopara viticola test in grape, preventive; type: in vivo; conditions: Plasmopara viticola, 50 ppm spray, grape seedlings inoculated one day after treatment, read-out: control (disease severity) compared to the untreated check
Protocol: Example B: Plasmopara viticola Test in Grape
Compounds were dissolved in 2% DMSO/Acetone & then mixed with water to calibrated spray volume of 50 ml. This 50 ml spray solution was poured into the spray bottles for further applications.
To test the preventive activity of compounds, five week old healthy grape seedlings raised in the greenhouse were sprayed with active compound preparation at the stated application rates inside the spray cabinets using hallow-cone nozzles. One day after treatment, the plants were inoculated with inoculum suspension (Cold sterile water) containing 6×10^6 Plasmopara viticola inoculum. The inoculated plants were then kept in greenhouse chamber at 18-21° C. temperature and 95-100% relative humidity for disease expression. Compounds
A visual assessment of compound's performance was carried by rating the disease severity (0-100% scale) on treated plants on 3, 7, 10 and 15 days after application. Efficacy (% control) of the compounds was calculated by comparing the disease rating in the treatment with untreated control. The sprayed plants were also assessed for compound's phytotoxic effects by recording symptoms like necrosis, chlorosis and stunting.

O=C(COc1ncccc1C(F)F)N1CCC(c2nc(C3=NOC(c4c(F)cccc4F)C3)cs2)CC1 (stereo not drawn) [Compound 86, 2-((3-(difluoromethyl)pyridin-2-yl)oxy)-1-(4-(4-(5-(2,6-difluorophenyl)-4,5-dihydroisoxazol-3-yl)thiazol-2-yl)piperidin-1-yl)ethan-1-one]
inhibition of growth at 30 ppm [1]: 70% | pest or weed control at 50 ppm [2]: 90% | pest or weed control at 50 ppm [3]: 90%

O=C(COc1ncc(Br)cc1C(F)(F)F)N1CCC(c2nc(C3=NOC(c4c(Cl)cccc4Cl)C3)cs2)CC1 (stereo not drawn) [Compound 35, 2-((5-bromo-3-(trifluoromethyl)pyridin-2-yl)oxy)-1-(4-(4-(5-(2,6-dichlorophenyl)-4,5-dihydroisoxazol-3-yl)thiazol-2-yl)piperidin-1-yl)ethan-1-one]
inhibition of growth at 30 ppm [1]: 70% | pest or weed control at 50 ppm [2]: 90% | pest or weed control at 50 ppm [3]: 90%

O=C(COc1ncccc1C(F)(F)F)N1CCC(c2nc(C3=NOC(c4ccccc4F)C3)cs2)CC1 (stereo not drawn) [Compound 66, 1-(4-(4-(5-(2-fluorophenyl)-4,5-dihydroisoxazol-3-yl)thiazol-2-yl)piperidin-1-yl)-2-((3-(trifluoromethyl)pyridin-2-yl)oxy)ethan-1-one]
inhibition of growth at 30 ppm [1]: 70% | pest or weed control at 50 ppm [2]: 90% | pest or weed control at 50 ppm [3]: 90%
